Three compounds from patent US20250380697A1, “ISOXAZOLINE DERIVATIVE COMPOUND AND INSECTICIDAL COMPOSITION COMPRISING SAME” (KYUNG NONG CORPORATION, priority 2022, published 2025) can be followed below.

What all share (type): in vivo
One series concerns Spodoptera exigua. As to the kind of experiment: Pesticidal activity against Spodoptera exigua, leaf-dipping method. To be noted: counted 24, 48, 72 hours, time not given, read-out: mortality rate, Spodoptera exigua. How it is done:
(§1) Cabbage (Daiya) leaves were cut into pieces with a diameter of 5.8 cm, dipped in the pesticide composition where the compound of Synthesis Example 2 was diluted (the solvent=distilled water+acetone 50,000 mg/L+Triton X-100 100 mg/L) for 30 seconds, and sufficiently shade-dried. Then, the shade-dried cabbage leaves were placed in a petri dish (8.8 cm in diameter) covered with filter paper and repeatedly inoculated 3-5 times with the second to the third instar larvae of Spodoptera exigua, 10 larvae per inoculation. In particular, the Spodoptera exigua larvae used were those purchased from the Bio Utilization Institute (Andong, Korea). Then, the Spodoptera exigua larvae were stored under the conditions of 16 hours of light and 8 hours of dark, 25±1° C. and 50-60% relative humidity, and the number of live Spodoptera exigua larvae was counted 24, 48, and 72 hours after the inoculation. Thereafter, the larvae mortality rate was calculated in the same manner as in Test Example 1 above.

The test system of a further series is Spodoptera frugiperda. As to the kind of experiment: Pesticidal activity against Spodoptera frugiperda, leaf-dipping method. The note with it: counted 24, 48, 72 hours, time not given, read-out: mortality rate, Spodoptera frugiperda. How it is done: as §1, with “frugiperda,” for “exigua,”, “frugiperda” for “exigua”, “which were provided by Chung Buk University (Korea) and bred indoors for multiple generations.” for “purchased from the Bio Utilization Institute (Andong, Korea).”

Another series concerns Maruca vitrta. As to the kind of experiment: Pesticidal activity against Maruca vitrta, artificial feed-dipping method. To be noted: counted 24, 48, 72 hours, time not given. How it is done: Cabbage (Daiya) leaves were cut into pieces with a size of 1 cm×1 cm×1 cm, dipped in the pesticide composition where the compound of Synthesis Example 2 was diluted (the solvent=distilled water+acetone 50,000 mg/L+Triton X-100 100 mg/L) for 30 seconds, and then sufficiently shade-dried by placing them on aluminum foil. In this case, the artificial feed used was prepared by a process, in which (1) 13 g of agar powder and 625 mL of secondary distilled water were added into a 1 L beaker and boiled in the microwave for 10 minutes; (2) the agar boiled in the microwave was added into a blender and then 75 g of soybean powder, 20 g of red bean powder, 10 g of malt powder, and 175 mL of secondary distilled water were added thereto and mixed together; and (3) after the resulting mixture was cooled to 50° C., 5 g of a vitamin mixture, 4 g of ascorbic acid, 1 g of sorbic acid, 1 g of β-sitosterol, 10 g of glucose, 10 g of cellulose, 3 g of cholesterol, 1.5 g of methyl-p-hydroxybenzoate, 0.5 g of aureomycin, and 0.4 g of fumidil B were added thereto, mixed together, and then thoroughly cooled. Before placing the artificial feed pieces in a petri dish (¢90 mm×15 mm), parafilm (5.1 cm×5.1 cm) was placed on top of a distilled water-treated filter paper (Ø90 mm) to maintain humidity, and the artificial feed pieces were placed on top of the parafilm.
Then, the second to the third instar larvae of Maruca vitrta were repeatedly inoculated 3-5 times, 10 larvae per inoculation. In this case, the Maruca vitrta larvae used were those purchased from the Bio Utilization Institute (Andong, Korea). Then, the Maruca vitrta larvae were stored under 16 hours of light: 8 hours of dark, 25±1° C., and 50-60% relative humidity, and the number of live Maruca vitrta larvae was counted 24, 48, and 72 hours after inoculation. Thereafter, the larvae mortality rate was calculated in the same manner as in Test Example 1 above.

The subject of a further series is Thrips tabaci Lindeman. As to the kind of experiment: Pesticidal activity against Thrips tabaci Lindeman, spray method. To be noted: adults, counted 24 and 48 hours, time not given, read-out: mortality rate, Thrips tabaci Lindeman. An excerpt:
A water-soaked filter paper (9.0 cm in diameter) was placed in an insect breeding dish (Lab Guide®) with a diameter of 9.0 cm and a height of 4.0 cm, and then parafilm (width 4.0 cm×height 4.0 cm) was placed thereon. Before being treated with a pesticide composition, 10 adult Thrips tabaci Lindeman were inoculated per petri dish using a No. 4 brush. In this case, Thrips tabaci Lindeman adults used were those collected in a place near the Andong National University (Korea) and bred for multiple generations. Then, the pesticide composition where the compound of Synthesis Example 2 was diluted (the solvent=distilled water+acetone 50,000 mg/L+Triton X-100 100 mg/L) was loaded into a 100 mL small sprayer, and sprayed 10-12 times at a distance of 30 cm and a height of 50 cm, and one cotyledons of soybean, which is a host plant, were added one at a time. Then, the Thrips tabaci Lindeman adults were stored under the conditions of 16 hours of light and 8 hours of darkness, 25±1° C., and relative humidity of 50-60%, and the number of live Thrips tabaci Lindeman adults was counted 24, and 48 hours after the inoculation. Thereafter, the larvae mortality rate was calculated in the same manner as in Test Example 1 above.

The subject of the next series is Rhopobota naevana. As to the kind of experiment: Pesticidal activity against Rhopobota naevana, spray method. To be noted: spray on apple leaves, counted 24, 48, 72 hours, time not given, read-out: mortality rate, Rhopobota naevana. How it is done:
Apple leaves were collected along with the stems, and the leaves of 3-4 base were cut into 5 cm×5 cm×5 cm pieces and placed in a tray oasis submerged in water. Then, the pesticide composition where the compound of Synthesis Example 2 was diluted (the solvent=distilled water+acetone 50,000 mg/L+Triton X-100 100 mg/L) was loaded into a 150 mL small sprayer and sprayed to the apple leaves, and 1 hour thereafter, the […] larvae were repeatedly inoculated 5-6 times, one per apple leaf. In particular, the Rhopobota naevana larvae were collected in the R&D Center of Kyung Nong Co., Ltd. (Gyeongju, Korea), and they were used after acclimatization indoors for 24 hours. Then, the Rhopobota naevana larvae were stored under the conditions of 16 hours of light and 8 hours of dark, 25±1° C. and relative humidity of 50-60%, and the number of live Rhopobota naevana larvae was counted 24, 48, and 72 hours after the inoculation. Thereafter, the larvae mortality rate was calculated in the same manner as in Test Example 1 above.

Another series has as its system Plutella xylostella. As to the kind of experiment: Pesticidal activity against Plutella xylostella, leaf-dipping method. The note with it: 48 h, read-out: mortality rate, Plutella xylostella.

For the compound `Cc1cc(C2=NOC(c3cc(Cl)cc(C(F)(F)F)c3)(C(F)(F)F)C2)ccc1C(=O)NC(=O)C1CC1` (racemic) [Synthesis Example 2], the mortality at 1 ppm in the series with Spodoptera exigua turned out to be 100%; with Spodoptera frugiperda, 100%; in the series on Thrips tabaci Lindeman, 70%; with Rhopobota naevana, 100%; in the series with Plutella xylostella, 100%. The mortality at 10 ppm in the series with Spodoptera exigua, in the series on Spodoptera frugiperda, in the series on Thrips tabaci Lindeman and with Plutella xylostella was 100% throughout. Also, the mortality at 0.1 ppm in the series with Spodoptera frugiperda, with Rhopobota naevana and in the series on Plutella xylostella was 100% each time. Further, the “mortality rate, Maruca vitrta” value in the series with Maruca vitrta (0.1 ppm) and in the series on Maruca vitrta (1 ppm) was 100% each time. Besides, in the series with Thrips tabaci Lindeman, the mortality at 3 ppm was 90%.
In the case of `CNC(=O)c1cc(Cl)cc(C)c1NC(=O)c1cc(Br)nn1-c1ncccc1Cl` [Comparative Example 2, chlorantraniliprole], the figures for the mortality at 1 ppm in the series on Spodoptera exigua, in the series on Rhopobota naevana and with Plutella xylostella were 46%, 100% and 100%, respectively. For the same compound, the mortality at 10 ppm in the series on Spodoptera exigua worked out at 71%; in the series with Plutella xylostella, 100%. Also, the figures for the “mortality rate, Maruca vitrta” value in the series on Maruca vitrta (0.1 ppm) and in the series with Maruca vitrta (1 ppm) were 33% and 83%, respectively. The mortality at 0.1 ppm in the series with Rhopobota naevana is 100%; in the series on Plutella xylostella, 21%.
In the case of `CON=CNC(=O)c1ccc(C2=NOC(c3cc(Cl)cc(Cl)c3)(C(F)(F)F)C2)cc1C` (stereo not drawn) [Comparative Example 1, fluxametamide], the mortality at 1 ppm in the series with Spodoptera exigua was 100%; in the series with Spodoptera frugiperda, 100%; in the series with Thrips tabaci Lindeman, 63%; in the series on Rhopobota naevana, 100%; in the series with Plutella xylostella, 100%. Also, the mortality at 10 ppm in the series on Spodoptera exigua is 100%; with Spodoptera frugiperda, 100%; in the series with Thrips tabaci Lindeman, 86%; in the series with Plutella xylostella it was 100%. The values for the mortality at 0.1 ppm in the series with Spodoptera frugiperda, with Rhopobota naevana and with Plutella xylostella were 100%, 83% and 100%, respectively. In addition, the figures for the “mortality rate, Maruca vitrta” value with Maruca vitrta (0.1 ppm) and with Maruca vitrta (1 ppm) were 23% and 90%, respectively. In the series with Thrips tabaci Lindeman, the mortality at 3 ppm came out at 83%.
